Measurements from patent US20120010272A1, “RNA Interference Mediated Inhibition of Apoptosis Signal-Regulating Kinase 1 (ASK1) Gene Expression Using Short Interfering Nucleic Acid (siNA)” (Merck Sharp & Dohme Corp., priority 2009, published 2012).

Legend:
Assay type in all cases: cell-based
ASK1 mRNA [1] = test: ASK1 mRNA knock-down by siNA in mouse Hepa1-6 cells (RNAiMax transfection, Taqman RT-PCR); conditions: 10 nM siNA, 24 hrs post-transfection, vs non-targeting control, GAPDH-normalized, mean ± S.D., two experiments
Description: Hepal-6 (murine; ATCC cat #CRL-1830): Cells were cultured at 37° C. in the presence of 5% CO2 and grown in Dulbecco's modified Eagle's medium (DMEM) with 4 mM L-glutamine adjusted to contain 1.5 g/L sodium bicarbonate and 4.5 g/L glucose and supplemented with 10% of fetal bovine serum, 100 μg/mL of streptomycin, and 100 U/mL penicillin.
(§1) Cells were plated in all wells of a tissue-culture treated, 96-well plate at a final count of 5000 cells/well (A549 cell line) and 3,500 cells/well (Hepal-6 cell line) in 100 μL of the appropriate culture media. The cells were cultured for 24 hours after plating at 37° C. in the presence of 5% CO2.
(§2) After 24 hours, complexes containing siNA and RNAiMax were created as follows: A solution of RNAiMax diluted 33-fold in OPTI-MEM was prepared. In parallel, solutions of the siNAs for testing were prepared to a final concentration of 120 nM in OPTI-MEM. After incubation of RNAiMax/OPTI-MEM solution at room temperature for 5 min, an equal volume of the siRNA solution and the RNAiMax solution were added together for each of the siNAs.
(§3) This solution was incubated at room temperature for 20 minutes. After incubation, 20 uL of the solution was added to each of the relevant wells. The final concentration of siNA in each well was 10 nM and the final volume of RNAiMax in each well was 0.3 ul.
(§4) The time of incubation with the RNAiMax-siNA complexes was 24 hours and there was no change in media between transfection and harvesting, unless otherwise indicated.
(§5) RNA was extracted from a 96-well plate using the TaqMan® Gene Expression Cells-to-CT™ Kit (Cat #4399002) with a modified protocol. Briefly, a 60 uL (1 plate) or 110 uL (2 plates) of the Lysis Solution with DNase I was dispensed into each well of the Lysis Buffer Plate (twin.tec full skirt plate). The lysis buffer and stop plates were stored at 4° C. until the cells were washed.
(§6) The plate was spun at 1100 rpm for 5 minutes. The culture medium was aspirated and discarded from the wells of the culture plate. The lysis was performed automatically using a BioMek FX instrument and method. After the Biomek method was completed, the lysis plate was incubated for 2 min. at room temperature. The lysis plate can be stored for 2 hours at 4° C., or at −20° C. or −80° C. for two months.
(§7) Each well of the reverse transcription plate required 10 uL of 2× reverse transcriptase Buffer, 1 uL of 20× reverse transcription enzyme and 2 uL of nuclease-free water. The reverse transcription master mix was prepared by mixing 2× reverse transcription buffer, 20× reverse transcription enzyme mix, and nuclease-free water. 13 uL of the reverse transcription master mix was dispensed into each well of the reverse transcription plate (semi-skirted). A separate reverse transcription plate was prepared for each cell plate. The plate was loaded onto a Biomek NX or Biomek FX Dual-96 and the Biomek method was run. The program is programmed to automatically added 7 uL of lysate from the cell lysis procedure described above into each well of the reverse transcription plate. The plate is sealed and spun on a centrifuge (1000 rpm for 30 seconds) to settle the contents to the bottom of the reverse transcription plate. The plate is placed in a thermocycler at 37° C. for 60 min, 95° C. for 5 min, and 4° C. until the plate is removed from the thermocycler. Upon removal, if not used immediately, the plate was frozen at −20° C.
(§8) A series of probes and primers were used to detect the various mRNA transcripts of the genes of ASK1, ASK2, and GAPDH in human cell lines and ASK1 and GAPDH in mouse cell lines. All Taqman probes and primers for the experiments were supplied as pre-validated sets by ABI (see Table 2).
(§9) The assays were performed on an ABI 7900 instrument, according to the manufacturer's instructions. A TaqMan Gene Expression Master Mix (provided in the Cells-to-CT™, Applied Biosystems, Cat #4399002) was used. […]

[2] = tested on: mRNA transcript of human ASK2; test: ASK2 specificity screen: effect of ASK1 siNAs on human ASK2 mRNA in A549 cells; conditions: 1 nM siNA, three independent experiments, mean ± standard deviation
Description: A549 cells were plated in all wells of a tissue-culture treated, 96-well plate at a final count of 5,000 cells/well in 100 μL of appropriate culture media. Cells were cultured for 24 hours after plating at 37° C. in the presence of 5% CO2.
as §2, with “follows.” for “follows:”, “siRNAs” for “siNAs”, “12” for “120”, “siNA” for “siRNA”, “siNAs. […] This solution was incubated at room temperature for 20 minutes. After incubation, 20 uL of the solution was added to each of the relevant wells. The final concentration of siNA in each well was 1 nM and the final volume of RNAiMax in each well was 0.3 uL. The time of incubation with the RNAiMax-siNA complexes was 24 hours.” for “siNAs.”
as §5, §6, §7, §8
The assays were performed on an ABI 7900 instrument, according to the manufacturer's instructions. A TaqMan Gene Expression Master Mix (provided in the Cells-to-CT™, Applied Biosystems, Cat #4399002) was used. The PCR reactions were carried out at 50° C. for 2 min, 95° C. for 10 min followed by 40 cycles at 95° C. for 15 secs and 60° C. for 1 min.
The expression level of the gene of interest and % knock-down was calculated using Comparative Ct method:
ΔΔCt=ΔCt(Target siRNA)−ΔCt(NTC)
Relative expression level=2^−ΔΔCt
The non-targeting control siRNA was, unless otherwise indicated, chosen as the value against which to calculate the % knock-down, because it is the most relevant control.
The specificity of these siNAs was also assessed. […]

ASK1 mRNA [3] = test: ASK1 mRNA knock-down by siNA in human A549 cells (RNAiMax transfection, Taqman RT-PCR)
Description: A549 (human; ATCC cat #CCL-185): Cells were cultured at 37° C. in the presence of 5% CO2 and grown in Ham's F12K medium with 2 mM L-glutamine adjusted to contain 1.5 g/L sodium bicarbonate and supplemented with fetal bovine serum at a final concentration of 10%, 100 μg/mL of streptomycin, and 100 U/mL penicillin.
as §1, §2, §3, §4, §5, §6, §7, §8, §9

ASK1 mRNA [4] = test: as above; conditions: 12 concentrations 0.083 fM to 30 nM, mean ± S.D.

Substance: 25385-DC: siNA duplex, sense B GGAAGGcuAucAuuGAcuu TTB, antisense AAGucAAuGAuAGccuuccUU (SEQ ID NO: 51/52), human ASK1 target site 4449 (sense GGAAGGCUAUCAUUGACUUTT; antisense AAGUCAAUGAUAGCCUUCCUU; chemistry not fully specified)
- % KD Mouse (ASK1 mRNA [1]): 75 ± 15%
- % KD ASK-2 1 nM [2]: 2 ± 11%
- % KD Human (ASK1 mRNA [3]; 10 nM siNA, 24 hrs post-transfection, vs non-targeting control, GAPDH-normalized, mean ± S.D., two experiments): 90 ± 0%
- % KD ASK-1 mRNA at 10 nM (ASK1 mRNA [3]; 10 nM, mean ± S.D. (Table 5)): 90 ± 0%
- % KD ASK-1 10 nM (ASK1 mRNA [3]; 10 nM, two experiments, mean ± standard deviation (Table 6)): 90 ± 0%
- IC50 (ASK1 mRNA [4]): 10 ± 3 pM
